Test results as given in EP2812315B1, “PYRROLIC DERIVATIVES, PROCESSES FOR PREPARING THE SAME AND THEIR USES AS A DRUG” (Universite Joseph Fourier, priority 2012, dated 2013).
In brackets after ≈: the same amount, converted by molar mass.

How the values were obtained:
Format in all cases: cell-based
[1] = system: Staphylococcus aureus ATCC 106414 (VISA); assay: MIC determination, microdilution method (CLSI M07-A8); conditions: 5 x 10^5 CFU/mL, 18 hours incubation
Summary of the method: (§1)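 MIC = lowest concentration with no visible growth after 18 h at 37°C. Mueller Hinton broth (+10% sheep blood and 5% CO2 for H. influenzae), 5 x 10^5 CFU/mL, twofold series 0.25-64 mg/L, CLSI M07-A8 microdilution.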

[2] = system: Staphylococcus aureus ATCC 33592 (MRSA); assay: as above; conditions: 5 x 10^5 CFU/mL, 18 hours incubation
Summary of the method: as §1

[3] = system: Staphylococcus aureus ATCC 6538; assay: as above; conditions: ATCC6538, 5 x 10^5 CFU/mL, 18 hours incubation
Summary of the method: as §1

[4] = system: Staphylococcus aureus ATCC 9144; assay: as above; conditions: ATCC9144, 5 x 10^5 CFU/mL, 18 hours incubation
Summary of the method: as §1

[5] = system: Staphylococcus aureus CIP 103428; assay: as above; conditions: CIP103428, 5 x 10^5 CFU/mL, 18 hours incubation
Summary of the method: as §1

[6] = system: Staphylococcus aureus CIP 65.25 (MRSA); assay: as above; conditions: 5 x 10^5 CFU/mL, 18 hours incubation
Summary of the method: as §1

[7] = system: Staphylococcus aureus CIP 65.6; assay: as above; conditions: CIP65, 5 x 10^5 CFU/mL, 18 hours incubation
Summary of the method: as §1

[8] = system: Staphylococcus epidermidis CIP 103627; assay: as above; conditions: CIP103627, 5 x 10^5 CFU/mL, 18 hours incubation
Summary of the method: as §1

[9] = system: Staphylococcus epidermidis CIP 81.55; assay: as above; conditions: CIP81, 5 x 10^5 CFU/mL, 18 hours incubation
Summary of the method: as §1

[10] = system: Staphylococcus aureus MRSA 252 CNR HT 2006 0436; assay: Determination of the minimum bactericidal concentration (MBC), macro-method; conditions: 18 hours incubation, initial bacterial load 9500000
Procedure: (§2) The MBC against two different strains of Staphylococcus aureus, one susceptible to methicillin (MSSA 476 CNR HT 2006 0437) and one resistant to methicillin (MRSA 252 CNR HT 2006 0436) obtained from Centre National de Reference des Staphylocoques (Lyon, France) were determined using a macro-method. Sterile tubes were filled with a primary bacterial inoculum prepared in Mueller Hinton broth as above (10^6 CFU/ml of final inoculum) and pyrrolic compounds were added at twofold serial concentrations (0.5-128 mg/L of final concentrations for 3h and 3i and 0.0625-128mg/L of final concentration for 3n). After 18 hours incubation of cultures, ten-fold serial dilutions of the cultures with no visible bacterial growth and of the first tube showing visible bacterial growth were prepared. Then 100µl of each dilution were inoculated to Mueller Hinton agar media for 24-48 hours. CFU counts were then determined and the MBC corresponded to the minimal pyrrolic compound concentration for which 99.9% of more bacterial cells were killed after 18 hours of incubation.
(§3) However, this reduction was only 1-2 log CFU/ml, and thus MBC could not be determined (tables VI and VII). Table VI: MBC against Staphylococcus aureus MRSA 252 CNR HT 2006 0436

[11] = system: Staphylococcus aureus MSSA 476 CNR HT 2006 0437; assay: as above; conditions: 18 hours incubation, initial bacterial load 7,70E+05
Procedure: as §2, §3

Compound | MIC [1] | MIC [2] | MIC [3] | MIC [4] | MIC [5] | MIC [6] | MIC [7] | MIC [8] | MIC [9] | CFU counts (bacterial load) ([10]; concentration 0,5 mg/L) | CFU counts (bacterial load) ([10]; concentration 1 mg/L) | CFU counts (bacterial load) ([10]; concentration 2 mg/L) | CFU counts (bacterial load) ([10]; concentration 4 mg/L) | CFU counts (bacterial load) ([10]; concentration 8 mg/L) | CFU counts (bacterial load) ([10]; concentration 16 mg/L) | CFU counts (bacterial load) ([11]; concentration 2 mg/L) | CFU counts (bacterial load) ([11]; concentration 4 mg/L) | CFU counts (bacterial load) ([11]; concentration 16 mg/L) | CFU counts (bacterial load) ([11]; concentration 32 mg/L) | CFU counts (bacterial load) ([11]; concentration 64 mg/L) | other results
CC(=O)c1c(C)[nH]c(C(c2ccc(Cl)cc2)c2[nH]c(C)c(C(C)=O)c2C)c1C [3c] | 2 µg/mL (≈ 5.04 µM) | 4 µg/mL (≈ 10.1 µM) | 2 µg/mL (≈ 5.04 µM) | 4 µg/mL (≈ 10.1 µM) | 8 µg/mL (≈ 20.2 µM) | 2 µg/mL (≈ 5.04 µM) | 4 µg/mL (≈ 10.1 µM) | > 128 µg/mL | > 128 µg/mL | – | – | – | – | – | – | – | – | – | – | – | –
CC(=O)c1c(C)[nH]c(C(c2cc3ccccc3o2)c2[nH]c(C)c(C(C)=O)c2C)c1C [3e] | 4 µg/mL (≈ 9.94 µM) | 4 µg/mL (≈ 9.94 µM) | 4 µg/mL (≈ 9.94 µM) | 4 µg/mL (≈ 9.94 µM) | 4 µg/mL (≈ 9.94 µM) | 2 µg/mL (≈ 4.97 µM) | 4 µg/mL (≈ 9.94 µM) | > 128 µg/mL | > 128 µg/mL | – | – | – | – | – | – | – | – | – | – | – | –
CC(=O)c1c(C)[nH]c(C(c2cc3ccccc3s2)c2[nH]c(C)c(C(C)=O)c2C)c1C [3f] | 2 µg/mL (≈ 4.78 µM) | 8 µg/mL (≈ 19.1 µM) | 2 µg/mL (≈ 4.78 µM) | 2 µg/mL (≈ 4.78 µM) | 2 µg/mL (≈ 4.78 µM) | 2 µg/mL (≈ 4.78 µM) | 2 µg/mL (≈ 4.78 µM) | > 128 µg/mL | > 128 µg/mL | – | – | – | – | – | – | – | – | – | – | – | –
CC(=O)c1c(C)[nH]c(C(c2[nH]c(C)c(C(C)=O)c2C)c2cccc3ccccc23)c1C [3h] | 1 µg/mL (≈ 2.42 µM) | 1 µg/mL (≈ 2.42 µM) | 1 µg/mL (≈ 2.42 µM) | 8 µg/mL (≈ 19.4 µM) | 1 µg/mL (≈ 2.42 µM) | 1 µg/mL (≈ 2.42 µM) | 1 µg/mL (≈ 2.42 µM) | > 128 µg/mL | > 128 µg/mL | 2,10E+08 CFU/ml | 7,50E+07 CFU/ml | 5,60E+05 CFU/ml | 5,50E+05 CFU/ml | 2,40E+05 CFU/ml | 3,20E+05 CFU/ml | 1,63E+08 CFU/ml | 3,20E+05 CFU/ml | 3,20E+05 CFU/ml | 3,70E+05 CFU/ml | 3,90E+05 CFU/ml | CFU counts (bacterial load) ([10]; concentration 32 mg/L): 4,20E+05 CFU/ml; CFU counts (bacterial load) ([10]; concentration 64 mg/L): 5,59E+05 CFU/ml; CFU counts (bacterial load) ([10]; concentration 128 mg/L): 6,28E+05 CFU/ml; CFU counts (bacterial load) ([11]; concentration 8 mg/L): 3,34E+05 CFU/ml; CFU counts (bacterial load) ([11]; concentration 128 mg/L): 4,30E+05 CFU/ml
CC(=O)c1c(C)[nH]c(C(c2[nH]c(C)c(C(C)=O)c2C)c2csc3ccccc23)c1C [3i] | 0.5 µg/mL (≈ 1.19 µM) | 0.5 µg/mL (≈ 1.19 µM) | 0.5 µg/mL (≈ 1.19 µM) | 1 µg/mL (≈ 2.39 µM) | 0.5 µg/mL (≈ 1.19 µM) | 1 µg/mL (≈ 2.39 µM) | 0.5 µg/mL (≈ 1.19 µM) | > 128 µg/mL | > 128 µg/mL | 4,70E+07 CFU/ml | 5,20E+05 CFU/ml | 2,40E+05 CFU/ml | 5,60E+05 CFU/ml | 2,80E+05 CFU/ml | 2,80E+05 CFU/ml | 3,55E+06 CFU/ml | 2,72E+05 CFU/ml | 3,51E+05 CFU/ml | 3,41E+05 CFU/ml | 3,21 E+05 CFU/ml | CFU counts (bacterial load) ([10]; concentration 32 mg/L): 5,00E+05 CFU/ml; CFU counts (bacterial load) ([10]; concentration 64 mg/L): 4,80E+05 CFU/ml; CFU counts (bacterial load) ([10]; concentration 128 mg/L): 1,00E+06 CFU/ml; CFU counts (bacterial load) ([11]; concentration 0,5 mg/L): 1,46E+08 CFU/ml; CFU counts (bacterial load) ([11]; concentration 1 mg/L): 6,00E+07 CFU/ml; CFU counts (bacterial load) ([11]; concentration 8 mg/L): 3,01E+05 CFU/ml; CFU counts (bacterial load) ([11]; concentration 128 mg/L): 1,47E+06 CFU/ml
CC(=O)c1c(C)[nH]c(C(c2[nH]c(C)c(C(C)=O)c2C)c2csc3ccc(Br)cc23)c1C [3n] | – | – | – | – | – | – | – | – | – | 2,90E+05 CFU/ml | 3,00E+05 CFU/ml | 4,20E+05 CFU/ml | 4,20E+05 CFU/ml | 3,40E+05 CFU/ml | 3,80E+05 CFU/ml | 2,70E+05 CFU/ml | 2,71E+05 CFU/ml | 4,41E+05 CFU/ml | 4,47E+05 CFU/ml | 4,50E+05 CFU/ml | CFU counts (bacterial load) ([10]; concentration 0,25 mg/L): 2,80E+05 CFU/ml; CFU counts (bacterial load) ([10]; concentration 0,125 mg/L): 1,00E+06 CFU/ml; CFU counts (bacterial load) ([10]; concentration 0,0625 mg/L): 2,90E+07 CFU/ml; CFU counts (bacterial load) ([11]; concentration 0,5 mg/L): 2,78E+05 CFU/ml; CFU counts (bacterial load) ([11]; concentration 0,25 mg/L): 2,10E+06 CFU/ml; CFU counts (bacterial load) ([11]; concentration 1 mg/L): 1,76E+05 CFU/ml; CFU counts (bacterial load) ([11]; concentration 0,125 mg/L): 8,00E+07 CFU/ml; CFU counts (bacterial load) ([11]; concentration 128 mg/L): 3,50E+05 CFU/ml; CFU counts (bacterial load) ([11]; concentration 0,0625 mg/L): 2,15E+08 CFU/ml
